Experimental data: article PMC5958115, “A novel small molecule chaperone of rod opsin and its potential therapy for retinal degeneration” (Nature Communications, 2018)
Entries after “also recorded” stand apart in the source; their conditions may differ. Read-outs that look alike come from different tables or passages of the source.

Columns and labels:
Format in all cases: cell-based
mouse P23H-opsin mutant = mouse P23H-opsin mutant (Mus musculus, UniProt P15409, P23H); test: β-Gal fragment complementation assay: rescue of P23H opsin transport from ER to plasma membrane, U2OS(PLC-EA/P23H-PK) cells
Excerpt: U2OS(PLC-EA/P23H-PK) cells. A U2OS stable cell line was generated by DiscoveRx, Inc. (Fremont, CA, USA) for the β-Gal fragment complementation assay used in the small-molecule HTS for rescue of P23H-opsin transport. U2OS cells that continually express P23H-PK and PLC-EA fusion proteins were generated. Briefly, this small subunit of β-Gal (PK fragment) was fused to the C-terminal of the mouse P23H-opsin mutant, while the large EA fragment, a subunit of β-Gal, was fused with PLC, a plasma membrane-anchored peptide. Both constructs were subcloned by DicoveRx, Inc. and transferred into U2OS cells by viral infections. Positive clones were selected under treatment with hygromycin and geneticin.
Briefly, U2OS(PLC-EA /P23H-PK) cells were suspended in assay medium at 3 × 10^5 cells mL^−1. The cell suspension was dispensed into 384-well plates (Greiner Bio-one, Monroe, NC, USA) at 20 µL per well, with a Multidrop dispenser (Thermo Scientific, Waltham, MA, USA). Plates with cells then were centrifuged at 200×g for 15 s before incubation at 37 °C with 5% CO2. Plates were removed 24 h later for treatment with tested compounds. A total of 248 plates containing 79,080 compounds from three small-molecule libraries were paired with an equal number of assay plates with cultured cells. Owing to a limited capacity, these plates were assayed in seven batches. An average of 56.3 nL of 10 mM compound in DMSO was dispensed into each well from column 3 to 22 of paired assay plates using a 50 nL 384-pintool system, such that the final concentration of each compound was 22.52 µM on average. […] Each assay plate was shaken for 5 s before further incubation at 37 °C with 5% CO2. After 24 h, assay plates were removed, and each well was incubated with 25 µL of 1× Gal-Screen assay buffer (1:24 substrate-buffer ratio). Assay plates were incubated in the dark for 60–90 min, and luminescence was read from each assay plate with an Envision microplate reader (PerkinElmer) during a 0.1 s per well integration time. The mean and s.d. of readouts in column 2 of each plate were calculated as Mean0% and SD0%, whereas the average and s.d. of readouts in column 23 were calculated as Mean100% and SD100%. Eq. 1: Activity scores (%) = (RLUcp − Mean0%)/(Mean100% − Mean0%) × 100%, where RLUcp is the relative luminescence unit derived for cells treated with a compound. Eq. 2: Z′-factor = 1–3 × (SD0% + SD100%)/(Mean100% − Mean0%)[32]; Eq. 3: signal-to-background (S/B) ratio = Mean100%/Mean0%. Activities of all tested compounds were registered with their compound ID by GeneData Screener (Genedata, Basel, Switzerland) and Pipeline Pilot software (Accelrys, San Diego, CA, USA). Hits, cherry-picked from a separate stock dose-dependent activity test, were selected with an activity score cutoff at 20%. Activity of each hit was tested again with the β-Gal fragment complementation assay in a 10-dose series with each dose tested in triplicate. The 10 doses tested were 80, 40, 20, 10, 5, 2.5, 1.25, 0.625, 0.313, and 0.156 µM. Dose-dependent curves of each hit compound were fitted with GeneData and Origin software.
Detailed synthetic steps are described in Supplementary Note and Supplementary Fig. 9. […] YC-002-YC-021 were purchased from commercial vendors including Enamine LLC (Monmouth Jct., NJ, USA), Matrix Scientific (Columbia, SC, USA) and Tokyo Chemical Industry Co., Ltd. (Portland, OR, USA). […] Activities of YC compounds were tested with the β-Gal fragment complementation assay, as described in a prior section. All YC compounds were tested at 10 doses, each in triplicate: 80, 40, 20, 10, 5, 2.5, 1.25, 0.625, 0.313, and 0.156 µM.

mouse P23H opsin = target: T1, mouse P23H opsin (Mus musculus, UniProt P15409, P23H); test: High-content imaging analysis of P23H opsin immunostaining in NIH3T3-(P23H opsin/GFP) cells; details: ratio of P23H rod opsin fluorescence on plasma membrane to whole cell; for EC50: read-out: Immunostaining HCS MEM-Total ratio EC50
T1 construct: expressed in transfected cells
Experimental: To characterize the effect of active compounds on the localization of P23H-mutant opsin in mammalian cells, an image-based assay was used with cells immunostained for WT or P23H-mutant opsin protein[18]. Briefly, NIH3T3-(P23H opsin/GFP) or NIH3T3-(WT-opsin/GFP) cells were seeded at 5000 cells per well in a 384-well cell-carrier plate (PerkinElmer) and incubated at 37 °C with 5% CO2 for 2 h. Cells were treated with compounds as described for the β-Gal fragment complementation assay and incubated in assay medium for 24 h. The assay medium then was aspirated, and cells were fixed with 4% paraformaldehyde at 20 µL per well for 20 min at RT. Cells were immunostained in one of two ways: cell membranes were either permeabilized with 0.1% Triton X-100 for 15 min or left intact and then were incubated with 10% goat serum (Life Technologies). To detect opsin on the cell plasma membrane only, intact cells were immunostained with 20 µL per well of 20 µg mL^−1 B6-30 anti-rhodopsin antibody that recognizes the N-terminal epitope on the extracellular side of rhodopsin. To detect total opsin, cells were permeabilized with Triton X-100 and immunostained with 50 µg mL^−1 1D4 anti-rhodopsin antibody specific for the C-terminal epitope on the intracellular side of rhodopsin. Opsin immunostaining was visualized by incubating cells with 5 µg mL^−1 Cy3-conjugated goat anti-mouse IgG antibody. Three washes with phosphate-buffered saline (PBS: 10 mM Na2HPO4, 1.8 mM KH2PO4, pH 7.4, 137 mM NaCl, and 2.7 mM KCl) were performed between each step of incubation with antibody. In the last wash with PBS, DAPI was added to each well at 300 nM. Fluorescence images were obtained with the Operetta High Content Imaging System (PerkinElmer) using a ×20 long objective. Five fields were taken of each well for cell images using three channels for fluorescence: GFP (100 ms), Cy3 (300 ms), and DAPI (50 ms). Images were analyzed with Acapella software from the Columbus data storage and analysis system (PerkinElmer)[18]. For cells immunostained with opsin on the non-permeabilized cell membrane only, an average of total fluorescence intensity of Cy3 per cell was used to quantify opsin in each well of the 384-well plate. For cells immunostained with opsin in permeabilized whole cells, an average ratio of Cy3 intensity on the cell plasma membrane (PM) to that of the entire cell (opsin ratio PM-to-total) was calculated for each well of a 384-well plate to quantify opsin transport to the plasma membrane. The plasma membrane was defined within ± 5% of the cell border.

P23H opsin = target: T2, P23H opsin (Mus musculus, UniProt P15409, P23H); test: Immunoblot of P23H opsin glycosylation in NIH3T3 cell lysates; set-up: key to Improved glycosylation: n = no; y = yes; details: P23H opsin
T2 construct: expressed in transfected cells
Experimental: NIH3T3-(P23H opsin/GFP) or NIH3T3-(WT-opsin/GFP) cells were seeded in a 48-well plate (Corning Costar) at 3.2 × 10^5 cells per well and incubated at 37 °C with 5% CO2 for 2 h. One hundred-µL of assay medium containing a compound at 5× its final concentration was added to each well. The plate was gently shaken for 5 s before further incubation at 37 °C with 5% CO2 for 24 h. The assay medium then was aspirated, and cells were lysed with 100 µL per well PBS containing 0.1% Triton X-100 and complete protease inhibitor cocktail (Roche, Basel, Switzerland) followed by sonication for 3 s. Protein concentrations were determined with the Bradford assay. For PNGaseF catalyzed deglycosylation, 3 µL of PNGaseF (1500 U, NEB) was added to the cell lysate and the mixture was incubated at room temperature for 1 h before immunoblotting. For NIH3T3-(P23H opsin/GFP) cells, 15 µg of total protein were loaded per well onto an SDS-polyacrylamide gel; whereas for NIH3T3-(WT-opsin/GFP) cells, 5 µg of total protein was loaded per well. Opsin protein was immunostained with 0.2 μg mL^−1 horseradish peroxidase-conjugated 1D4 anti-rhodopsin antibody. Band intensities were measured with ImageJ software (http://imagej.nih.gov/ij/; National the Institutes of Health, Bethesda, MD, USA) and normalized to a glyceraldehyde 3-phosphate dehydrogenase (GAPDH) loading control. Full scans of immunoblotted membranes are shown in Supplementary Fig. 8.

[1] = 24 h; 5 µM 9-cis-retinal = 100%; experimental maximum
[2] = 24 h; 5 µM 9-cis-retinal = 100%; from curve fitting
[3] = 24 h preincubation; activity standardized to 5 µM 9-cis-retinal as 100%; Hill fit; read-out: β-Gal fragment complementation assay Activity score (%) EC50
[4] = modifications linked to C3 of the furan-2(5H)-one ring; 10 doses 0.156-80 µM; read-out: Potency EC50

| β-Gal fragment complementation assay Activity score (%) Max (fit) / Efficacy (mouse P23H-opsin mutant; [2]) [%] | EC50 (mouse P23H-opsin mutant; [3]) [µM] | Immunostaining HCS MEM-Total ratio Max (fit) (mouse P23H opsin) | EC50 (mouse P23H opsin) [µM] | Improved glycosylation (P23H opsin) | activity in rescuing P23H-opsin transport (in words) (mouse P23H-opsin mutant) | EC50 (mouse P23H-opsin mutant; [4]) [µM] | Emax (mouse P23H-opsin mutant; U2OS; read-out: Efficacy (%)) [%] | Compound | other results |
| --- | --- | --- | --- | --- | --- | --- | --- | --- | --- |
| 31.5 | 21.6 | 0.031 | 4.15 | n | – | – | – | O=C(NCCn1ncc2c(NCc3ccco3)ncnc21)c1cc(-c2ccccc2)on1 [Compound F2902-1134] | β-Gal fragment complementation assay Activity score (%) Max (Exp) (mouse P23H-opsin mutant; [1]): 23.1% |
| 155 | 28.6 | 0.046 | 2.42 | y | – | – | – | COCCNC(=O)c1sc2c(cnc3ccc(OC)cc32)c1-c1ccccc1 [Compound F3382-5924] | – |
| 165 | 54.3 | 0.025 | 6.76 | y | – | – | – | O=C(Cn1c2c(c(=O)n(C3CCCCC3)c1=O)CCC2)Nc1cccc(F)c1 [Compound F5111-0031] | β-Gal fragment complementation assay Activity score (%) Max (Exp) (mouse P23H-opsin mutant; [1]): 60.4% |
| 230 | 5.93 | 0.010 | 0.64 | y | – | – | – | O=C(C1CC1)N(CCn1cccn1)c1nc2c(Cl)cccc2s1 [Compound F5581-0240] | β-Gal fragment complementation assay Activity score (%) Max (Exp) (mouse P23H-opsin mutant; [1]): 244% |
| 51.6 | 25 | 0.041 | 6.2 | n | – | – | – | O=C(NCCCOc1cccc2cccnc12)c1cc(-c2ccccc2)on1 [Compound F5875-0200] | β-Gal fragment complementation assay Activity score (%) Max (Exp) (mouse P23H-opsin mutant; [1]): 31.8% |
| 37.3 | 8.38 | 0.021 | 1.33 | n | – | – | – | O=C(NCCCn1cccc1)c1cc(-c2ccccc2)on1 [Compound F5937-0207] | β-Gal fragment complementation assay Activity score (%) Max (Exp) (mouse P23H-opsin mutant; [1]): 32.8% |
| – | – | – | – | – | – | – | – | Cc1sc(C)c(C2C(=O)OC(=O)C2c2c(C)sc(C)c2C)c1C (stereo not drawn) [YC-018] | EC50 (mouse P23H-opsin mutant; more than one site modified; read-out: Potency): 138 µM |
| – | – | – | – | – | failed to retain activity | – | – | O=C1OCC(c2ccc(Cl)s2)=C1c1ccco1 [YC-028] | – |
| – | – | – | – | – | activity was preserved or improved | 9.87 | 188 | O=C1OCC(c2ccc(Cl)s2)=C1c1ccccc1 [YC-047] | – |
| – | – | – | – | – | lower efficacies | 7.36 | 131 | O=C1OCC(c2ccc(Cl)s2)=C1c1cccc(F)c1 [YC-050] | – |
| – | – | – | – | – | activity was preserved or improved | 10.9 | 169 | O=C1OCC(c2ccc(Cl)s2)=C1c1ccsc1 [YC-051] | – |
| – | – | – | – | – | – | 7.13 | 10 | COc1ccc(C2=C(c3ccc(Cl)s3)COC2=O)cc1 [YC-052] | – |
| – | – | – | – | – | little efficacy | 24.1 | 32.9 | O=C1OCC(c2ccc(Cl)s2)=C1c1ccc(F)cc1 [YC-053] | – |
| – | – | – | – | – | – | 9.39 | 104 | COc1cccc(C2=C(c3ccc(Cl)s3)COC2=O)c1Cl [YC-056] | – |
| – | – | – | – | – | – | – | 7.1 | O=C1NCC(c2ccc(Cl)s2)=C1c1cccs1 [YC-060] | EC50 (mouse P23H-opsin mutant; modifications of the furan-2(5H)-one ring; read-out: Potency): 24.6 µM |

| Compound | β-Gal fragment complementation assay Activity score (%) Max (fit) / Efficacy (mouse P23H-opsin mutant; [2]) [%] | EC50 (mouse P23H-opsin mutant; [3]) [µM] | Immunostaining HCS MEM-Total ratio Max (fit) (mouse P23H opsin) | EC50 (mouse P23H opsin) [µM] | Improved glycosylation (P23H opsin) | activity in rescuing P23H-opsin transport (in words) (mouse P23H-opsin mutant) | EC50 (mouse P23H-opsin mutant; [4]) [µM] | Emax (mouse P23H-opsin mutant; U2OS; read-out: Efficacy (%)) [%] | other results |
| --- | --- | --- | --- | --- | --- | --- | --- | --- | --- |
| O=C1OCC(c2ccc(Cl)s2)=C1c1ccccn1 [YC-043] | – | – | – | – | – | activity was preserved or improved; also recorded: improved potency, efficacy, or solubility | 19 | – | Efficacy (%) (mouse P23H-opsin mutant; modifications at C3; normalized to 5 µM 9-cis-retinal): 214% |
| O=C1OCC(c2ccco2)=C1c1cccs1 [YC-049] | – | – | – | – | – | some activity that remained | – | – | EC50 (mouse P23H-opsin mutant): 91.9 µM; Emax (mouse P23H-opsin mutant; U2OS, read-out: Efficacy (%)): 112% |
| Cc1c(F)cccc1C1=C(c2ccc(Cl)s2)COC1=O [YC-054] | – | – | – | – | – | improved potency, efficacy, or solubility | 3.53 | 227 | – |
| O=C1OCC(c2ccc(Cl)s2)=C1c1ccc(Cl)cc1Cl [YC-055] | – | – | – | – | – | – | 5.33 | 11 | – |
| O=C1OCC(c2ccc(Cl)s2)=C1c1ccccc1F [YC-068] | – | – | – | – | – | relatively higher efficacies; also recorded: improved potency, efficacy, or solubility | 5.66 | 261 | – |
